# Measured values as given in patent publication US12029731B2, “Acyl benzo[d]thiazol-2-amine and their methods of use” (Biohaven Pharmaceutical Holding Company Ltd., priority 2016, dated 2024).
# Entries after “also recorded” stand apart in the source; their conditions may differ.
# Columns and labels:
# [1] = test system: Stage III and IV melanoma; assay: Phase 0 human clinical trial of riluzole in melanoma patients; assay type: in vivo; details: after only 14 days of treatment
# Description: We have recently shown that riluzole has dramatic anti-melanoma activity in vitro cellular assays, in mice and in a Phase 0 human clinical trial. […] However, the therapeutic utility of riluzole itself in ALS and eventually for melanoma is very constrained by rapid first-pass metabolism in the liver and an exceptionally high level of patient-to-patient variability in the extent of the Cyp1A2-mediated oxidative metabolism that is observed.
# C8161 cells [2] = details: C8161 human melanoma cells; cited from earlier work
# C8161 cells [3] = details: positive control, in comparison with no treatment and DMSO treated; cited from earlier work
compound,measurement,setting,value
Nc1nc2ccc(OC(F)(F)F)cc2s1 [riluzole],patients with clinical or radiologic evidence of tumor response,[1],four of 12; also recorded: four of twelve
same,effect on excess cellular glutamate,C8161 cells [2],inhibits excess cellular gluatamate
same,C8161 cell growth,C8161 cells [3],dose-dependent suppression
